Assay results reported in patent publication US6821926B1, “Carbamoyl triazolinone based herbicide” (Bayer Aktiengesellschaft, priority 1999, dated 2004).

Key:
Experiment in all cases: Pre-emergence/greenhouse herbicidal test, % damage
Format in all cases: in vivo
Abutilon = details: pre-emergence, after approximately 3 weeks
Experimental: (§1) Customary formulations of the respective active compounds were used. Butafenacil was employed as Inspire® 100 EC, azafenidin as an 80 WG formulation and the compound of the formula (I-1) as a 70 WG formulation. The active compounds were used to prepare an aqueous spray mixture with 0.1% of Renex-36 as additive. Pre-emergence/greenhouse Seeds of the test plants are sown in standard soil. After 24 hours, the test compound or the combination of test compounds, is sprayed onto the soil surface in such a manner as to apply the amount of active compound per unit area desired in each case. The concentration of the spray mixture is chosen so that the desired amounts of active compound desired are applied in 500 l of water per ha. After the spray application, the plant containers are placed in the greenhouse under constant light and temperature conditions. After approximately 3 weeks, the degree of damage of the crop plants is scored in % damage in comparison with the development of the untreated control. The figures denote: 0%=no damage (as untreated control) 100%=Total destruction/damage

Datura = details: pre-emergence, after approximately 3 weeks
Experimental: as §1

Setaria = details: pre-emergence, after approximately 3 weeks
Experimental: as §1

Solanum = details: after approximately 3 weeks
Experimental: as §1

Alopecurus = details: pre-emergence, after approximately 3 weeks
Experimental: as §1

Xanthium = details: pre-emergence, after approximately 3 weeks
Experimental: as §1

Galium = details: pre-emergence, after approximately 3 weeks
Experimental: as §1

Cassia = details: pre-emergence, after approximately 3 weeks
Experimental: as §1

Ipomea = details: pre-emergence, after approximately 3 weeks
Experimental: as §1

Digitaria = details: pre-emergence, after approximately 3 weeks
Experimental: as §1

## C=CCOC(=O)C(C)(C)OC(=O)c1cc(-n2c(=O)cc(C(F)(F)F)n(C)c2=O)ccc1Cl [Butafenacil, [1,1-dimethyl-2-oxo-2-(2-propenyloxy)]-ethyl 2-chloro-5-(3,6-dihydro-3-methyl-2,6-dioxo-4-trifluoromethyl-1(2H)-pyrimidinyl)-benzoate]
Abutilon; 2 g ai/ha
  Abutilon observed: 30%
Datura; 2 g ai/ha
  Datura observed: 30%
Setaria; 0.5 g ai/ha
  Setaria observed: 0%
Setaria; 2 g ai/ha
  Setaria observed: 0%
Solanum; pre-emergence, 0,5 g ai/ha
  Solanum observed: 0%
Solanum; pre-emergence, 1 g ai/ha
  Solanum observed: 0%
Solanum; pre-emergence, 2 g ai/ha
  Solanum observed: 0%
Alopecurus; 0.5 g ai/ha
  Alopecurus observed: 0%
Alopecurus; 2 g ai/ha
  Alopecurus observed: 0%
Xanthium; 2 g ai/ha
  Xanthium observed: 0%
Galium; 1 g ai/ha
  Galium observed: 0%
Cassia; 0.5 g ai/ha
  Cassia observed: 0%
Ipomea; 0.5 g ai/ha
  Ipomea observed: 0%
Digitaria; 0.5 g ai/ha
  Digitaria observed: 20%
Digitaria; 1 g ai/ha
  Digitaria observed: 20%

## CC(C)c1nn(C(=O)NC(C)(C)C)c(=O)n1N [Compound (I-1), 4-amino-5-(1-methyl-ethyl)-2-(1,1-dimethyl-ethyl-aminocarbonyl)-2,4-dihydro-3H-1,2,4-triazol-3-one]
Abutilon; 60 g ai/ha
  Abutilon observed: 50%
Datura; 60 g ai/ha
  Datura observed: 50%
Setaria; 125 g ai/ha
  Setaria observed: 0%
Solanum; pre-emergence, 60 g ai/ha
  Solanum observed: 90%
Alopecurus; 125 g ai/ha
  Alopecurus observed: 0%
Xanthium; 125 g ai/ha
  Xanthium observed: 90%
Galium; 125 g ai/ha
  Galium observed: 80%
Cassia; 60 g ai/ha
  Cassia observed: 30%
Ipomea; 125 g ai/ha
  Ipomea observed: 50%
Digitaria; 125 g ai/ha
  Digitaria observed: 40%
